{
  "source": "paper PMC9545868",
  "about": "“Structure‐Based Demystification of Radical Catalysis by a Coenzyme B12 Dependent Enzyme—Crystallographic Study of Glutamate Mutase with Cofactor Homologues” (Angewandte Chemie (International Ed. in English), 2022)",
  "target": "T1, glutamate mutase (GM) (Clostridium cochlearium, UniProt P80077+P80078)",
  "T1 construct": "gene glmE; hetero-tetramer of two epsilon and two sigma subunits; construct details only in the supplement",
  "T1 sequence (P80077 1-483)": "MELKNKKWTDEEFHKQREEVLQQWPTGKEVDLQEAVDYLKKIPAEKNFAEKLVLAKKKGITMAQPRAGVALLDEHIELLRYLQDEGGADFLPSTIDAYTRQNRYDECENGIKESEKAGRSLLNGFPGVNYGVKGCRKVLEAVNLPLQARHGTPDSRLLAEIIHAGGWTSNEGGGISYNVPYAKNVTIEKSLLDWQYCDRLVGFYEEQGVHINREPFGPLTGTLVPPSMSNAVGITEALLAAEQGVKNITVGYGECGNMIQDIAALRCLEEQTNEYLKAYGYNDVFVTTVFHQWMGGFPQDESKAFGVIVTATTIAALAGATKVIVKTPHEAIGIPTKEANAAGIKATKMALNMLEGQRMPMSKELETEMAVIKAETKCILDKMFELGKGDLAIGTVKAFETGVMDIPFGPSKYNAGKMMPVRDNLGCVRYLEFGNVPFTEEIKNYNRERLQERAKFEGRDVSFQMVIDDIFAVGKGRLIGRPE",
  "T1 sequence (P80078 1-137)": "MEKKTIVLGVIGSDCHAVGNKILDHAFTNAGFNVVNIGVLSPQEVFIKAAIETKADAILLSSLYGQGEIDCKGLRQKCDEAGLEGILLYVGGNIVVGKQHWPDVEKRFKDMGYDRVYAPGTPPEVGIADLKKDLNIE",
  "assay": "X-ray crystal structures, […] and […] Å",
  "format": "binding",
  "details": "pseudo-substrate in the substrate site of the epsilon subunit (arginine claw R66, R100, R149); with AdoMeCbl or AdoEtCbl bound",
  "data": [
    {"smiles": "O=C(O)[C@@H](O)[C@H](O)C(=O)O", "note": "[(S,S)‐tartrate]", "values": [
      {"measurement": "X-ray crystal structures, 1.8 and 2.1 Å", "value": "strong polar binding interactions with the carboxylate groups of an (S,S)‐tartrate ion"}
    ]}
  ]
}
